The text below walks through data of ChEMBL document CHEMBL1127263, “Synthesis of B-NOR-4-AZA-5-androstane compound as 5-reductase inhibitor” (Bioorg Med Chem Lett, 1994).

Structures are written as SMILES.

For this experiment, the target named is Steroid 5-alpha-reductase (Rattus norvegicus) (UniProt P24008+P31214). Put plainly: Inhibition of rat Steroid 5-alpha-reductase was determined at 10e-8 M concentration. The class given is protein assay.
Steroid 5-alpha-reductase (Rattus norvegicus), sequence (P24008 whole entry, looked up): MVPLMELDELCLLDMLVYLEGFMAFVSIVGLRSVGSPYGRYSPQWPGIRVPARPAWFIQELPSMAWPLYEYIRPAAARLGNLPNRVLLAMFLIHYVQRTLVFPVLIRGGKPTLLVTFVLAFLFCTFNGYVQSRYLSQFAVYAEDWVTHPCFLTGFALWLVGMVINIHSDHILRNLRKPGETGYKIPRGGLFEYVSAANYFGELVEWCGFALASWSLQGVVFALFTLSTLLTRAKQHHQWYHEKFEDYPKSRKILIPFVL
Steroid 5-alpha-reductase (Rattus norvegicus), sequence (P31214 whole entry, looked up): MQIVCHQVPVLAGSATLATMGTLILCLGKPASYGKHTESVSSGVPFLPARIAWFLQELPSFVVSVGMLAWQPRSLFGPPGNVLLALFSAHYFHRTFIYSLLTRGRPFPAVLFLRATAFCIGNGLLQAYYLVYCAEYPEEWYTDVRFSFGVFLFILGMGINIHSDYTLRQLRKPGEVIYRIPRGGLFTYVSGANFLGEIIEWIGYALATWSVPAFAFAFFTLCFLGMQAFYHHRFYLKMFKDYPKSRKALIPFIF

As usually defined, the inhibition is the relative decrease from the control value, in per cent. Low values mean a response near the control, high ones a response far below the control. For `CC12CCC3C(C[C@H]4NC(=O)CCC34C)C1CCC2C(=O)NC(c1ccccc1)c1ccccc1` (stereo partly specified), the inhibition was 63%.
